In experiment [1] the test system is E. coli 2806. Description: Broth microdilution MIC (strain enzymes: SHV-12, TEM-1). The settings on record: Escherichia coli, 2806; alone; read-out: MIC of ceftibuten (CTB). The experiment is classed as cell-based. A general note: In broth dilution the organism is exposed to a series of concentrations in liquid medium.
Experiment [2] relates to E. coli 3174. Description: Broth microdilution MIC (strain enzymes: TEM-1, CTXM-15). It is filed as cell-based. The settings on record: Escherichia coli, 3174; alone; read-out: MIC of ceftibuten (CTB).
In experiment [3] the test system is E. coli BAS 1. Description: Broth microdilution MIC (strain enzymes: none detected). The experiment is classed as cell-based. Particulars: Escherichia coli, BAS1; alone; read-out: MIC of ceftibuten (CTB).
For experiment [4], the system named is E. coli ESBL 5. The experiment is described as follows: Broth microdilution MIC (strain enzymes: CTX-M15, TEM-1). The experiment is classed as cell-based. The settings on record: Escherichia coli, ESBL5; alone; read-out: MIC of ceftibuten (CTB).
For experiment [5], the system named is E. coli SI-M004. Description: Broth microdilution MIC (strain enzymes: SHV-2, GES-12). It is filed as cell-based. Particulars: Escherichia coli, SIM004; alone; read-out: MIC of ceftibuten (CTB).
Experiment [6] deals with E. coli SI-V502. Description: Broth microdilution MIC (strain enzymes: TEM-29, CTX-M15). The experiment is classed as cell-based. Particulars: Escherichia coli, SIV502; alone; read-out: MIC of ceftibuten (CTB).
Experiment [7] concerns K. oxytoca 169219. The experiment is described as follows: Broth microdilution MIC (strain enzymes: TEM-1, CTXM-15). It is filed as cell-based. Particulars: Klebsiella oxytoca, 169219; alone; read-out: MIC of ceftibuten (CTB).
In experiment [8] the test system is K. oxytoca 176877. The experiment is described as follows: Broth microdilution MIC (strain enzymes: SHV-105). The experiment is classed as cell-based. The settings on record: Klebsiella oxytoca, 176877; alone; read-out: MIC of ceftibuten (CTB).
Experiment [9] has as its system K. pneumoniae 153239. The experiment is described as follows: Broth microdilution MIC (strain enzymes: SHV-11, TEM-1). Particulars: Klebsiella pneumoniae, 153239; alone; read-out: MIC of ceftibuten (CTB). The experiment is classed as cell-based.
Experiment [10] has as its system K. pneumoniae 170375. The experiment is described as follows: Broth microdilution MIC (strain enzymes: SHV-12, CTX-M15 and TEM-1). The experiment is classed as cell-based. The settings on record: Klebsiella pneumoniae, 170375; alone; read-out: MIC of ceftibuten (CTB).
The test system of experiment [11] is K. pneumoniae 304487. Description: Broth microdilution MIC (strain enzymes: SHV-12,TEM-1). It is filed as cell-based. Particulars: Klebsiella pneumoniae, 304487; alone; read-out: MIC of ceftibuten (CTB).
The subject of experiment [12] is K. pneumoniae 319478. Description: Broth microdilution MIC (strain enzymes: SHV-12, CTX-M3 and TEM-1). It is filed as cell-based. The settings on record: Klebsiella pneumoniae, 319478; alone; read-out: MIC of ceftibuten (CTB).
The subject of experiment [13] is K. pneumoniae 329633. The experiment is described as follows: Broth microdilution MIC (strain enzymes: SHV-5, TEM-1). Particulars: Klebsiella pneumoniae, 329633; alone; read-out: MIC of ceftibuten (CTB). The experiment is classed as cell-based.
For experiment [14], the system named is K. pneumoniae ESBL 7 #1. Description: Broth microdilution MIC (strain enzymes: SHV-12, TEM-1). It is filed as cell-based. Particulars: Klebsiella pneumoniae; alone; read-out: MIC of ceftibuten (CTB).
The subject of experiment [15] is K. pneumoniae ESBL 8 #1. The experiment is described as follows: Broth microdilution MIC (strain enzymes: TEM-1, SHV-12). It is filed as cell-based. The settings on record: Klebsiella pneumoniae; alone; read-out: MIC of ceftibuten (CTB).
Experiment [16] deals with K. pneumoniae ESBL 8 #2. The experiment is described as follows: Broth microdilution MIC (strain enzymes: SHV-12, TEM-1). The settings on record: Klebsiella pneumoniae; alone; read-out: MIC of ceftibuten (CTB). The experiment is classed as cell-based.
For experiment [17], the system named is K. pneumoniae KPN 508. The experiment is described as follows: Broth microdilution MIC (strain enzymes: SHV-7, TEM-1). It is filed as cell-based. The settings on record: Klebsiella pneumoniae, KPN508; alone; read-out: MIC of ceftibuten (CTB).
Experiment [18] concerns K. pneumoniae SI-KP NO30. The experiment is described as follows: Broth microdilution MIC (strain enzymes: TEM-26b, SHV-60, SHV-26). It is filed as cell-based. Particulars: Klebsiella pneumoniae, SIKPNO30; alone; read-out: MIC of ceftibuten (CTB).
Experiment [19] has as its system K. pneumoniae BAA 1705. The experiment is described as follows: Broth microdilution MIC (strain KPC-producing). The experiment is classed as cell-based. Particulars: Klebsiella pneumoniae, BAA1705; alone; read-out: MIC of ceftibuten (CTB).
Experiment [20] has as its system E. coli expressing TEM-1+CTX-M-15, CTX-M-15, and KPC-2+SHV-12. Description: Murine ascending UTI model, three strains. The experiment is classed as in vivo, mice. Particulars: mouse, in vivo.
Experiment [21] relates to 21 strains of Enterobacteriaceae expressing various beta-lactamases. The experiment is described as follows: MIC testing of thigh model strains. Particulars: read-out: ceftibuten MICs. The experiment is classed as cell-based.

Structures are written as SMILES. Where only a bound is given, the exact number is not on record here.

For the compound `Nc1nc(/C(=C/CC(=O)O)C(=O)N[C@@H]2C(=O)N3C(C(=O)O)=CCS[C@H]23)cs1` [Ceftibuten, ceftibuten, reference compound], the MIC in experiment [1] was 2 µg/mL; in [2] it was 0.5 µg/mL; in experiment [3], more than 32 µg/mL; in experiment [4], more than 32 µg/mL; in experiment [5], 32 µg/mL; in experiment [6] it was 0.5 µg/mL. Besides, the MIC in [7] is 4 µg/mL; in experiment [8], 4 µg/mL; in experiment [9], 0.25 µg/mL; in [10], 32 µg/mL; in [11] it was 8 µg/mL; in experiment [12], more than 32 µg/mL. Also, the MIC in [13] is 16 µg/mL; in experiment [14], 32 µg/mL; in experiment [15], 16 µg/mL; in experiment [16] it was 16 µg/mL; in experiment [17], 32 µg/mL; in [18], 0.25 µg/mL. Moreover, the results for the MIC in experiment [19] and in [21] were 32 µg/mL and not below 32 µg/mL, respectively. Moreover, the “CFU reductions in the kidneys” value in experiment [20] is listed as “minimal CFU reductions”.

The values above are taken from patent US12544395B2, “Combination compositions comprising a beta-lactamase inhibitor and uses thereof” (priority 2018, dated 2026).
